Source: patent US6461856B2 (priority 1999, dated 2002)

Test system: F420-dependent dehydrogenase (ORF 9)
Assay type: biochemical, Rhodococcus erythropolis HL PM-1

## O=[N+]([O-])c1ccc(O)c([N+](=O)[O-])c1 [DNP, 2,4-dinitrophenol]
  reduction of the substrate to its Meisenheimer complex upon addition of ORF 9 extract: reduces
